Assay results: patent EP0833842B1, “NOVEL PEPTIDES FOR USE IN TREATMENT OF T-CELL MEDIATED CARTILAGE DESTRUCTION IN AUTOIMMUNE DISEASES” (Akzo Nobel N.V., priority 1995, dated 1999)
pIC50: −log10 of the molar value. Where no end group is shown, it is not given here.

Target: DR4 (DRB1*0401) (Homo sapiens, UniProt P01903+P01911, A100K/A169T/F76Y/I96L/K127E/L162R/M171V/N62H/P40V/Q125Y/R42H/S133A/S149N/S66Y/V115G/V209L/W38E)
Assay: Peptide HLA-DR binding assay (semi-quantitative competition with biotinylated marker peptide)
Conditions: read-out: DRB1*0401 ^eIC50
Protocol: Two EBV-transformed B-cell lines, BSM (typed as DR4 [DRB1*0401] and BM92 (typed as DR4 [DRB1*0404) were provided by Dr. M. Oudshoom from the Academic Hospital Leiden, the Netherlands. The cells were cultured in Dulbecco's modified eagles minimal essential medium DMEM/HAM's F12 (Gibco Laboratories, Grand Island, NY) supplemented with 10% FCS (Hyclone Laboratories), 1% non-essential amino acids (ICI), L-glutamine, 2-ME and antibiotics. Cells were routinely passaged every 2-3 days in a 1:2 ratio. Cells were harvested and thereafter washed three times in phosphate buffer saline (PBS) (4°C) containing 1 mM PMSF. Cell pellets were stored at -70°C until use. HLA-DR expressing cells were thawed and lysed on ice for 30 minutes in PBS, 1% NP-40, 1 mM AEBSF (Calbiochem). The lysate was cleared of nuclei and debris by centrifugation at 15.000 rpm (Sorvall, SS34 rotor) for 30 minutes.
HLA-DR molecules were affinity purified from cell lysates using monoclonal antibody L243 (ATCC), directed against a nonpolymorphic determinant on the DR-complex (Lampson et al., J. Immunol. 125:293, 1980). Protein G sepharose purified L243 was coupled to NHS-Sepharose 4 FF (Pharmacia) according to the manufactures instructions. The cleared cell-lysate was passed through a 0.45 µm filter and added to L243-NHS-sepharose beads. […] Collected fractions were analysed on SDS-PAGE under non-reducing conditions followed by silver staining. […]
The peptide binding studies were performed using a semi-quantitative binding assay as described previously (Joosten et al., Int. Immunol. 6:751, 1994).
After approximately 48 hours incubation at room temperature, bound and unbound marker peptides were separated by SDS-PAGE under non-reducing conditions. […] Biotinylated peptides were detected by enhanced chemoluminescence using a Westem Blot ECL kit (Amersham, U.K.) according to the manufactures instructions. […]

| pIC50 | Sequence |
| --- | --- |
| 5.00 to 6.00 | AGWLADGSLRYPI [HAG3] |
| 5.00 to 6.00 | AGWLADRSVRYPI [HAG2] |
| 4.00 to 5.00 | AGWLSDGSVQYPI [HCLP1] |
